Test results: patent publication US20070037882A1, “Remedy for cerebral neurodegenerative diseases using ppar agonist” (Astellas Pharma Inc., priority 2003, published 2007)
“Also recorded” adds a separate entry of the source.

How the values were obtained:
[1] = test system: murine MPTP Parkinson's model; assay: Murine MPTP Parkinson's model, striate body DA and metabolites; assay type: in vivo, mice; conditions: for DA content per wet weight of striate body / DOPAC content per wet weight of striate body / HVA content per wet weight of striate body: MPTP +, 4 days after MPTP
[2] = test system: SH-SY5Y cells; assay: Staurosporine-induced cellular death model, dead cells by LDH assay; assay type: cell-based, human; conditions: staurosporine + (150 nM), 24 h
Procedure: SH-SY5Y cells were plated on a 96-well plate (70,000 cell/well in 100 μl DMEM low glucose 10% fetal bovine serum) for overnight culturing, from which the culture medium was removed with an aspirator. Then, DMEM without serum was added at 50 μl/well. […] 2 hours later, DMEM without serum containing 900 nM staurosporine was added at 20 μl/well. (Staurosporine to a final 150 nM concentration) (For a control, DMEM without serum alone was added.) 24 hours later, LDH activity was assayed by measuring the absorbance at 490 nm, using Cytotoxicity detection kit (Roche). […] An apparent correlation is observed with the results of viable cells as determined by the MTT assay in Example 9.

[3] = test system: SH-SY5Y cells; assay: MPP+-induced cellular death model, viable cells by MTT assay; assay type: cell-based, human; conditions: for MTT assay A490: MPP+ + (3 mM), 24 h
Procedure: SH-SY5Y cells were spread on a 96-well plate (70,000 cell/well in 100 μl DMEM low glucose 10% fetal bovine serum) for overnight culturing, from which the culture medium was removed with an aspirator. Then, DMEM without serum was added at 50 μl/well. […] 2 hours later, DMEM without serum containing 18 mM MPP^+ was added at 20 μl/well. (MPP^+ to a final 3 mM concentration) (For a control, DMEM without serum alone was added).
24 hours later, cell growth activity was assayed by measuring the absorbance at 490 nm, using Celltiter 96 aqueous one solution cell proliferation assay kit (Promega).
In the assay system, MPP^+ as an MPTP metabolite was added to a neuroblastoma SH-SY5Y, to inhibit the mitochondrial complex I to cause the generation of active oxygen and the inhibition of ATP synthesis, to induce cellular death. It is said that in the murine MPTP model commonly used as a model of Parkinson's disease, MPTP passing through the blood brain barrier is metabolized into MPP^+, which exerts toxicity specific to murine nigra cell to induce nerve detachment. Therefore, the assay system can be said as an in vitro assay system mimicking the murine MPTP model.

[4] = test system: SH-SY5Y cells; assay: Thapsigargin-induced cellular death model, apoptosis by caspase-3/7 assay; assay type: cell-based, human; conditions: for Caspase 3/7 activity: thapsigargin + (100 nM), 3 h
[5] = test system: rat cerebral infarction model; assay: Rat cerebral infarction model (middle cerebral artery-occluded reperfusion, Koizumi method); assay type: in vivo; conditions: for Lesions with cerebral infarction (area in % of damaged site in the 6 sections), Cortex / Lesions with cerebral infarction (area in % of damaged site in the 6 sections), Subcortex / Lesions with cerebral infarction (area in % of damaged site in the 6 sections), Total: 24 h after reperfusion
[6] = test system: SH-SY5Y cells; assay: MPP+-induced cellular death model, dead cells by LDH assay; assay type: cell-based, human; conditions: for LDH release A490: MPP+ + (3 mM), 24 h
Procedure: SH-SY5Y cells were spread on a 96-well plate (70,000 cell/well in 100 μl DMEM low glucose 10% fetal bovine serum) for overnight culturing, from which the culture medium was removed with an aspirator. Then, DMEM without serum was added at 50 μl/well. […] 2 hours later, DMEM without serum containing 18 mM MPP^+ was added at 20 μl/well. (MPP^+ to a final 3 mM concentration) (For a control, DMEM without serum alone was added.)
24 hours later, the dead cell count was calculated on the basis of the LDH activity assayed with a cytotoxicity detection kit (Roche). […] The results reveal that the PPARδ agonists are effective on the suppression of MPP^+-induced cellular death.

[7] = test system: SH-SY5Y cells; assay: Thapsigargin-induced cellular death model, dead cells by LDH assay; assay type: cell-based, human; conditions: thapsigargin + (100 nM), 24 h, concentration not given
Procedure: SH-SY5Y cells were plated on a 96-well plate (70,000 cell/well in 100 μl DMEM low glucose 10% fetal bovine serum) for overnight culturing, from which the culture medium was removed with an aspirator. Then, DMEM without serum was added at 50 μl/well. […] 2 hours later, DMEM without serum containing 600 nM thapsigargin was added at 20 μl/well. (Thapsigargin to a final 100 nM concentration) (For a control, DMEM without serum alone was added.) 24 hours later, the absorbance at 490 nm was assayed with a cytotoxicity detection kit (Roche) to assay the LDH activity. […] An apparent correlation between the result of the viable cell count as determined by MTT assay in Example 1 and the LDH activity is shown. The above results clearly indicate that the PPARδ agonists are effective on the suppression of the thapsigargin-induced cellular death.

[8] = test system: SH-SY5Y cells; assay: Staurosporine-induced cellular death model, apoptosis by caspase-3/7 assay; assay type: cell-based, human; conditions: for Caspase 3/7 activity: staurosporine + (150 nM), 3 h
Procedure: SH-SY5Y cells were spread on a 96-well plate (70,000 cell/well in 100 μl DMEM low glucose 10% fetal bovine serum) for overnight culturing, from which the culture medium was removed with an aspirator. Then, DMEM without serum was added at 50 μl/well. […] 2 hours later, DMEM without serum containing 900 nM staurosporine was added at 20 μl/well. (Staurosporine to a final 150 nM concentration) (For a control, DMEM without serum alone was added).
3 hours later, the caspase-3/7 activity was assayed with Apo-One homogenous Caspase-3/7 assay kit (Promega).

## Cc1cc(SCc2sc(-c3ccc(C(F)(F)F)cc3)nc2C)ccc1OCC(=O)O [GW501516]
[1]; 12 μg/head/day
  DA content per wet weight of striate body: 7.41 ± 1.27 ng/mg tissue
  DOPAC content per wet weight of striate body: 0.39 ± 0.06 ng/mg tissues
  HVA content per wet weight of striate body: 0.82 ± 0.08 ng/mg tissue
[1]; 120 μg/head/day
  DA content per wet weight of striate body: 8.98 ± 1.20 ng/mg tissue
  DOPAC content per wet weight of striate body: 0.44 ± 0.04 ng/mg tissues
  HVA content per wet weight of striate body: 0.90 ± 0.05 ng/mg tissue
[1]; any of the doses (12 or 120 μg/head/day)
  action of suppressing the decrease of the contents of DA, DOPAC and HVA (in words): greatly observed
[2]; compound 0.1 μM
  LDH release A490: 0.5430 ± 0.0264
[2]; compound 1 μM
  LDH release A490: 0.5201 ± 0.0313
[2]; compound 10 μM
  LDH release A490: 0.4025 ± 0.0188
[3]; SH-SY5Y, MPP+
  suppression of MPP+-induced cellular death (in words): suppress cellular death induced by MPP^+ in a concentration-dependent manner
[3]; compound 0.1 μM
  MTT assay A490: 0.3361 ± 0.0073
[3]; compound 1 μM
  MTT assay A490: 0.3926 ± 0.0090
[3]; compound 10 μM
  MTT assay A490: 0.3814 ± 0.0156
[3]; compound 100 μM
  MTT assay A490: 0.2990 ± 0.0144
[4]; SH-SY5Y, thapsigargin
  suppression of caspase-3/7 activity (in words): suppress the activity of caspase-3/7
[4]; compound 1 μM
  Caspase 3/7 activity: 237165 ± 5248 RFLU
[4]; compound 10 μM
  Caspase 3/7 activity: 125951 ± 6465 RFLU
[4]; compound 100 μM
  Caspase 3/7 activity: 421972 ± 21782 RFLU
[5]; 24 μg/head/day i.c.v.
  Lesions with cerebral infarction (area in % of damaged site in the 6 sections), Cortex: 9.39 ± 1.56%
  Lesions with cerebral infarction (area in % of damaged site in the 6 sections), Subcortex: 9.35 ± 0.65%
  Lesions with cerebral infarction (area in % of damaged site in the 6 sections), Total: 18.74 ± 2.00%
[5]; 240 μg/head/day i.c.v.
  Lesions with cerebral infarction (area in % of damaged site in the 6 sections), Cortex: 7.26 ± 1.67 %
  Lesions with cerebral infarction (area in % of damaged site in the 6 sections), Subcortex: 7.88 ± 0.79%
  Lesions with cerebral infarction (area in % of damaged site in the 6 sections), Total: 15.14 ± 2.20 %
[5]; rat cerebral infarction model
  action to reduce cerebral infarction (in words): potent actions to reduce cerebral infarction; also recorded: far greater action of reducing cerebral damages
[6]; compound 0.1 μM
  LDH release A490: 0.3633 ± 0.0153
[6]; compound 1 μM
  LDH release A490: 0.3222 ± 0.0207
[6]; compound 10 μM
  LDH release A490: 0.2981 ± 0.0154
[6]; compound 100 μM
  LDH release A490: 0.7969 ± 0.0251
[6]; concentration of 100 μM, MPP+ model
  cytotoxicity (in words): exerted cytotoxicity
[7]; 2nd '+' line (presumably 0.1 μM)
  LDH release A490: 0.6225 ± 0.0229
[7]; 3rd '+' line (presumably 1 μM)
  LDH release A490: 0.5750 ± 0.0212
[7]; 4th '+' line (presumably 10 μM)
  LDH release A490: 0.3325 ± 0.0259
[7]; 5th '+' line (presumably 100 μM)
  LDH release A490: 0.6675 ± 0.0328
[8]; SH-SY5Y, staurosporine
  suppression of caspase-3/7 activity (in words): suppress the activity of caspase-3/7
[8]; compound 0.1 μM
  Caspase 3/7 activity: 586295 ± 18787 RFLU
[8]; compound 1 μM
  Caspase 3/7 activity: 463943 ± 12110 RFLU
[8]; compound 10 μM
  Caspase 3/7 activity: 420844 ± 13962 RFLU
